Tests used:
[1] = test system: ApoE3 Leiden mice; assay: cuff-induced neointimal thickening in femoral artery; assay type: in vivo, mouse; details: for intima media ratio: vs control group; for lumen size (HPS stained vessel segments): vs control group A
Text: Neointimal and medial thickening is an early and essential stage in the development of atherosclerotic lesions and an essential component of restenosis. It is accompanied by fibrotic changes in the neointima and media of the vascular wall. This study evaluated the role of blocking SSAO in fibrotic disease by evaluating the effect of systemic delivery (by daily ip injection) of a small molecule SSAO inhibitor (mofegiline, BTT-2089) on cuff-induced neointimal thickening (cuff-induced stenosis) in the femoral artery of ApoE3 Leiden mice that received a moderate western type diet.
Methods: 40 male ApoE3*Leiden mice (age 12 weeks) were fed a mildly hypercholesterolemic diet for 3 weeks prior to surgical cuff placement. Treatment was daily ip injections with 1) vehicle; 2) dexamethasone in drinking water at 9 mg/I; 3) daily ip injections of BTT-2089 at 10 mg/kg; 4) BTT-2089 at 30 mg/kg, all started one day prior to surgery and continued during the experimental period. At day 0 surgery was performed, i.e. a non-constricting cuff (2-3 mm in length) was placed around both femoral arteries of the mice. 10 mice of each group were sacrificed after 2 weeks for histomorphometric analysis to quantify the inhibition of accelerated atherosclerotic lesions and neointima formation. […] This was reflected in the increased lumen size in examples of HPS stained vessel segments in SSAO inhibitor treated groups when compared to a control group (FIG. 12).
A second study, in the same model, was performed with another SSAO inhibitor from a chemical class distinct from BTT-2089. This hydrazine based inhibitor (BTT-2079) was dosed at a level of 10 mg/kg by daily i.p injection and compared with BTT-2089 at 30 mg/kg. In all other respects the study was performed in the same manner except that the dexamethasone control group was omitted. […] Vascular integrity was not affected.

[2] = test system: C57BL/6J mice; assay: tobacco smoke induced mouse model of COPD, BAL cell counts; assay type: in vivo; details: for reduction of total number of cells in BAL: 5 mg/kg orally once daily 11 days, 1 h prior to TS
Procedure: C57BL/6J mice were exposed once daily to tobacco smoke (TS) for 11 consecutive days resulting in pulmonary inflammation 24 hours following the final TS exposure. After 11 days the response comprised of significant increases in macrophages, epithelial cells, eosinophils, neutrophils and lymphocytes.
Mice were randomly divided into study groups (n=10) and treated with a vehicle (5 ml/kg PBS pH 7.4+0.1% Polysorbate 80) or mouse monoclonal anti-VAP-1 antibody (3 mg/kg or 9 mg/kg BTT-1029 in the vehicle) intravenously on Days −1, 3, 6, and 9 at 4 h post TS exposure. Another group (n=10) received the vehicle intravenously and was exposed to air for an equivalent length of time. Two further groups of mice (n=10) received another vehicle (0.5% carboxymethylcellulose, sodium salt (CMC) in sterile water) or a reference compound (5 mg/kg Roflumilast in 0.5% CMC) orally once a day for 11 consecutive days at 1 h prior to each TS exposure. A final group (n=10) received the oral vehicle (0.5% CMC) and was exposed to air for an equivalent length of time.
All results were presented as individual data points for each animal and the mean value calculated for each group. Where tests for normality were positive the data initially was subjected to a one way analysis of variance test (ANOVA), followed by a Bonferroni correction for multiple comparisons in order to test for significance between treatment groups. A “p” value of ≤0.05 was considered to be statistically significant.
All data was also subjected to the Bartlets test for equal variances and for the majority of studies variances were generally equal, however as occurred in this study, occasionally some treatment groups would give a positive result. Non parametric analyses were therefore also used. As the data was normally distributed, parametric analyses (ANOVA) were quoted.
Percentage inhibitions were automatically calculated within the Excel spreadsheets for the cell data using the formula below: […]

[3] = second study, 10 mg/kg i.p. daily
[4] = first study, 10 mg/kg ip daily, 2 weeks, vs NaCl 0.9% control
[5] = first study, 30 mg/kg ip daily, 2 weeks, vs NaCl 0.9% control
[6] = second study, 30 mg/kg i.p. daily

Question: `CN(N)[C@H](c1ccccc1)[C@@H](O)c1ccccc1` [BTT-2079, (1S,2R)-2-(1-methylhydrazino)-1,2-diphenylethanol] was tested. Which lumen area [1, 3] did it give?
Answer: Its lumen area is “No significant changes”.

Question: What about the media area [1, 3] of the same molecule?
Answer: Its media area is “No significant changes”.

Question: And the neointima formation [1, 3]?
Answer: Its neointima formation is “significant reduction”.

Question: What about the percentage lumen stenosis [1, 3] of the same molecule?
Answer: The percentage lumen stenosis was “only significantly less in the BTT-2089 30 mg/kg group”.

Question: And the vascular integrity [1, 3]?
Answer: The vascular integrity was “not affected”.

Question: What about the vessel wall diameter [1, 3] of the same molecule?
Answer: Its vessel wall diameter is “No significant changes”.

Question: And the intima media ratio [1, 3]?
Answer: Its intima media ratio is “significantly less”.

Question: How did the media formation [1, 4] turn out when `NC/C(=C/F)CCc1ccc(F)cc1` [BTT-2089, (E)-2-(4-fluorophenethyl)-3-fluoroallylamine] was run?
Answer: Its media formation is “significant reduction”.

Question: What about the neointima formation [1, 4] of the same molecule?
Answer: The neointima formation was “significant reduction”.

Question: What about the “lumen size (HPS stained vessel segments)” value ([1]; first study, 10 mg/kg) of the same molecule?
Answer: Its value is “increased”.

Question: What about the media formation [1, 5] of the same molecule?
Answer: The media formation was “significant reduction”.

Question: And the neointima formation [1, 5]?
Answer: The neointima formation was “significant reduction”.

Question: What about the “lumen size (HPS stained vessel segments)” value ([1]; first study, 30 mg/kg) of the same molecule?
Answer: The value was “increased”.

Question: What about the lumen area [1, 6] of the same molecule?
Answer: The lumen area was “No significant changes”.

Question: And the media area [1, 6]?
Answer: Its media area is “No significant changes”.

Question: And the neointima formation [1, 6]?
Answer: Its neointima formation is “significant reduction”.

Question: What about the percentage lumen stenosis [1, 6] of the same molecule?
Answer: Its percentage lumen stenosis is “significant reduction”.

Question: And the vascular integrity [1, 6]?
Answer: Its vascular integrity is “not affected”.

Question: What about the vessel wall diameter [1, 6] of the same molecule?
Answer: Its vessel wall diameter is “No significant changes”.

Question: And the intima media ratio [1, 6]?
Answer: The intima media ratio was “significantly less”.

Question: What does the source list for `O=C(Nc1c(Cl)cncc1Cl)c1ccc(OC(F)F)c(OCC2CC2)c1` [Roflumilast]?
Answer: number of eosinophils in BAL ([2]; 5 mg/kg orally once daily): did not significantly reduce; number of macrophages in BAL ([2]; 5 mg/kg orally once daily): did not significantly reduce; reduction of epithelial cells in BAL ([2]; 5 mg/kg orally once daily): 51%; reduction of lymphocytes in BAL ([2]; 5 mg/kg orally once daily): 65%; reduction of neutrophils in BAL ([2]; 5 mg/kg orally once daily): 63%; reduction of total number of cells in BAL [2]: 41%; reduction of total number of cells in BAL ([2]; listed as roflumilast): reduction
